Test [1] relates to CCL-1 (transformed mouse fibroblasts, NCTC clone 929). Kind of test: MTT dye-reduction cytotoxicity assay (ISO 10993-5). The settings on record: for MTC (maximum tolerated concentration): at least 70% of cells viable. Type of test: cell-based. From the text: (§1) The cell lines utilized in this study included the human tumor lines A-375 (malignant melanoma) and A-431 (non-melanoma epidermoid squamous skin carcinoma) as well as the models for non-tumorigenic cells—HaCaT (immortalized human keratinocytes) and CCL-1^TM (transformed mouse fibroblasts, NCTC clone 929). The first three cell lines were obtained from CLS Cell Lines Service (GmbH, Eppelheim, Germany). CCL-1^TM was purchased from the American Type Culture Collection (ATCC, Manassas, VA, USA). Cells were maintained in a controlled environment—sterile cell culture flasks in a CO2 incubator Panasonic MCO-18AC (Panasonic Healthcare co., ltd, Oizumi-Machi, Japan) at 37 °C and a humidified atmosphere containing 5% CO2. CCL-1 was cultured in MEM with 10% heat-inactivated horse serum and 2 mM L-glutamine, and the cell culture medium for the rest of the cell lines was DMEM-HG with 4.5 g/L glucose with the addition of 10% heat-inactivated fetal bovine serum and 4 mM L-glutamine. Pen/strep (concentration of penicillin G sodium 10^5 Units/L and of streptomycin sulfate 100 mg/L) was added to both culture media. The cell lines were maintained as an adherent monolayer in a log phase. The cells were sub-cultivated about 1–3 times per week after the monolayer reached 80–90% confluence. The medium was removed from the flask, and the cell monolayer was washed with 3–5 mL PBS. The cells were incubated with 0.05% EDTA in PBS for 8–10 min, followed by the next step where all cell lines were subjected to enzyme cell detachment. HaCaT and CCL-1 monolayers were detached with 1 mL solution of trypsin/EDTA (0.1%/0.05% for HaCaT and 0.25% (w/v)/0.53 mM for CCL-1) and incubated for 2–5 min at 37 °C (for HaCaT) or at room temperature (for CCL-1 cells), whereas Accutase® was used for A-375 and A-431 lines. The incubation lasted until the separation and dispersion of the cells in the monolayer were observed using light microscopy. In the end, all cell lines were resuspended in 10 mL medium and centrifuged for 3 min at 300× g. The cell pellet was resuspended in fresh medium and sub-cultivated at a seeding density of 1.0 × 10^4 cells/cm^2.
(§2) The MTT test was performed in order to determine the median inhibitory (IC50) and MTC concentrations of the solvents and PAC according to Annex C, ISO 10993-5 [2, 21]. Briefly, 100 µL of the cell suspension (1 × 10^5 cells/mL) were seeded per well in 96-well plates with a flat bottom. The cells were incubated for 24 h, allowing them to enter the log phase of their growth. On the 24th hour, the cells were treated with the solvents or CystiCran® solutions in concentrations ranging between 0.004% and 2% volume fraction (v/v) and incubated further for 72 h. The incubation periods are following the recommendations of the FDA guide for the use of ISO 10993-1 [1]. At the end of the incubation period, 10 µL of an MTT solution (5 mg/mL) were added to each well, and the plates were kept at 37 °C for 2 hours. Thereafter, the medium was aspirated, and the formed formazan crystals were dissolved in 100 μL/well of 2-propanol supplemented with 5% formic acid. The same solvent was used as a blank. Untreated cells were considered as a negative control. […] The absorption was measured at 540 nm (reference filter at 690 nm) on a microplate reader ELx800 (BioTek Instruments, Inc., Winooski, VT, Winooski, VT, USA).
The IC50 values from the MTT assay were evaluated with a non-linear regression analysis (Curve fit, GraphPad Prizm 6.01 software, GraphPad Software Inc., San Diego, CA, USA) using sigmoidal concentration–response curves. The cell viability is presented as a percentage of the untreated control. At least four wells were seeded for every concentration. Three independent assays were performed (n = 3).
Background: Tetrazolium assays rely on reduction of a dye to a coloured formazan, in cell work by metabolically active cells.

For test [2], the system named is A-431 (non-melanoma epidermoid squamous skin carcinoma). The test is described as follows: MTT dye-reduction cytotoxicity assay (ISO 10993-5). It is filed as cell-based, human. The settings on record: solvent alone, n = 3; for MTC (maximum tolerated concentration): 72 h, at least 70% of cells viable.
Text: as §1
as §2, with “blank.” for “blank. Untreated cells were considered as a negative control.”
The IC50 values from the MTT assay were evaluated with a non-linear regression analysis (Curve fit, GraphPad Prizm 6.01 software, GraphPad Software Inc., San Diego, CA, USA) using sigmoidal concentration–response curves. […]

Test [3] relates to S. pyogenes SAIMC 10535. The test is described as follows: Dehydrogenase activity (DEHA) MTT test after BMD. It is filed as cell-based, Streptococcus pyogenes. The settings on record: 24 h exposure; % against untreated control; ± SD; n = 3. As for the experimental part:
(§3) The cell dehydrogenase (DEHA, redox, metabolic) activity of all samples was measured at the end of the BMD assay, based on reducing the MTT dye to formazan by the membrane located bacterial enzyme NADH: ubiquinone reductase (H^+-translocation). The protocol of Wang et al. was applied after minor modifications. Briefly, each sample was incubated for 120 min at 37 °C with MTT at a final concentration of 0.5 mg/mL in the culture medium. The resulting non-soluble violet formazan crystals were dissolved with an equal volume of 2-propanol supplemented with 5% formic acid. The absorbance was measured at 550 nm against a blank solution containing the respective volumes of MHB and MTT.
(§4) The cell viability is presented as a percentage of the untreated control. At least four wells were seeded for every concentration. Three independent assays were performed (n = 3). […] The respiratory activity of the bacterial cultures was calculated as a percentage against the untreated control.

The test system of test [4] is E. faecalis ATCC 29212. Kind of test: Dehydrogenase activity (DEHA) MTT test after BMD. It is filed as cell-based, Enterococcus faecalis. Conditions: 24 h exposure; % against untreated control; ± SD; n = 3. As for the experimental part:
as §3, §4

Test [5] deals with P. aeruginosa ATCC 27853. The test is described as follows: Dehydrogenase activity (DEHA) MTT test after BMD. Type of test: cell-based, Pseudomonas aeruginosa. Conditions: for DEHA (dehydrogenase activity): 24 h exposure, % against untreated control, ± SD, n = 3. As for the experimental part:
as §3, §4

The subject of test [6] is S. Aureus MRSA NBIMCC 8327. Kind of test: Dehydrogenase activity (DEHA) MTT test after BMD. It is filed as cell-based, Staphylococcus aureus. The settings on record: 24 h exposure; % against untreated control; ± SD; n = 3. The method, then:
as §3
The IC50 values from the MTT assay were evaluated with a non-linear regression analysis (Curve fit, GraphPad Prizm 6.01 software, GraphPad Software Inc., San Diego, CA, USA) using sigmoidal concentration–response curves. The cell viability is presented as a percentage of the untreated control. […] The maximum tolerated concentration (MTC) for the cell lines was determined from three independent assays according to ISO 10993-5 as the maximum concentration at which at least 70% of the cells were viable (nonlin fit, range, GraphPad Prizm 6.01 software) GraphPad Software Inc., San Diego, CA, USA). […] The respiratory activity of the bacterial cultures was calculated as a percentage against the untreated control.

In test [7] the test system is Staphylococcus epidermidis, Salmonella paratyphi A, Vibrio cholerae, Shigella flexneri and Pseudomonas oleovorans. The settings on record: cited from earlier work.
The subject of test [8] is breast cancer, mouse macrophage and human umbilical vein endothelial cells. The arrangement: method as in doi:10.17795/ajmb-33453. The settings on record: cited from earlier work.

For the compound “polyethylene glycol of average molecular weight 400 [PEG-400]”, in test [1] (72 h, equals 1.16% v/v), the IC50 value is 13 mg/mL. Besides, the “MTC (maximum tolerated concentration)” value in test [1] (solvent alone, 72 h, n = 3) is on record as 0.21 % (v/v); in test [2], 0.89 % (v/v). In addition, the “IC50 (CI 95%)” value in test [1] (solvent alone, 72 h incubation, n = 3) is 1.16 % (v/v). Moreover, the “DEHA (dehydrogenase activity)” value in test [3] amounted to 23.66 ± 0.02%; in test [4] it was 65.33 ± 0.06%; in test [5] it was 15.31 ± 0.04%. Besides, in test [5] (P. aeruginosa), the “suppression of the respiratory activity” value is on record as about 85%.

In the case of `C[S+](C)[O-]` [DMSO, dimethyl sulfoxide], the “DEHA (dehydrogenase activity)” value came out at 13.01 ± 0.05% in test [6], 27.27 ± 0.02% in test [3], 29.86 ± 0.08% in test [4] and 9.78 ± 0.01% in test [5]. Moreover, the MTC in test [7] was 3 % volume fraction.

Take `CCO` [EtOH, ethanol]: the “MTC (maximum tolerated concentration)” value in test [1] (solvent alone, 72 h, n = 3) is listed as 1.15 % (v/v); in test [2], > 2 % (v/v). Further, the “IC50 (CI 95%)” value in test [2] (72 h incubation) was > 2 % (v/v). Further, the “maximum tolerated concentration (MTC) / applicable concentration” value in test [8] is reported as “up to 0.5 % v/v”. Further, in test [7] (at a concentration of 1% v/v), the growth inhibition is 19%.
